The results in this text go back to patent EP4592286A1, “MACROCYCLIC NITROGEN-CONTAINING CROWN ETHER COMPOUND AND USE THEREOF AS PROTEIN KINASE INHIBITOR” (Artivila Biopharma, priority 2022, dated 2024).

Holding throughout (type): biochemical
The target in experiment [1] is T1, JAK3 (Homo sapiens, UniProt P52333).
T1 sequence (P52333 1-1124): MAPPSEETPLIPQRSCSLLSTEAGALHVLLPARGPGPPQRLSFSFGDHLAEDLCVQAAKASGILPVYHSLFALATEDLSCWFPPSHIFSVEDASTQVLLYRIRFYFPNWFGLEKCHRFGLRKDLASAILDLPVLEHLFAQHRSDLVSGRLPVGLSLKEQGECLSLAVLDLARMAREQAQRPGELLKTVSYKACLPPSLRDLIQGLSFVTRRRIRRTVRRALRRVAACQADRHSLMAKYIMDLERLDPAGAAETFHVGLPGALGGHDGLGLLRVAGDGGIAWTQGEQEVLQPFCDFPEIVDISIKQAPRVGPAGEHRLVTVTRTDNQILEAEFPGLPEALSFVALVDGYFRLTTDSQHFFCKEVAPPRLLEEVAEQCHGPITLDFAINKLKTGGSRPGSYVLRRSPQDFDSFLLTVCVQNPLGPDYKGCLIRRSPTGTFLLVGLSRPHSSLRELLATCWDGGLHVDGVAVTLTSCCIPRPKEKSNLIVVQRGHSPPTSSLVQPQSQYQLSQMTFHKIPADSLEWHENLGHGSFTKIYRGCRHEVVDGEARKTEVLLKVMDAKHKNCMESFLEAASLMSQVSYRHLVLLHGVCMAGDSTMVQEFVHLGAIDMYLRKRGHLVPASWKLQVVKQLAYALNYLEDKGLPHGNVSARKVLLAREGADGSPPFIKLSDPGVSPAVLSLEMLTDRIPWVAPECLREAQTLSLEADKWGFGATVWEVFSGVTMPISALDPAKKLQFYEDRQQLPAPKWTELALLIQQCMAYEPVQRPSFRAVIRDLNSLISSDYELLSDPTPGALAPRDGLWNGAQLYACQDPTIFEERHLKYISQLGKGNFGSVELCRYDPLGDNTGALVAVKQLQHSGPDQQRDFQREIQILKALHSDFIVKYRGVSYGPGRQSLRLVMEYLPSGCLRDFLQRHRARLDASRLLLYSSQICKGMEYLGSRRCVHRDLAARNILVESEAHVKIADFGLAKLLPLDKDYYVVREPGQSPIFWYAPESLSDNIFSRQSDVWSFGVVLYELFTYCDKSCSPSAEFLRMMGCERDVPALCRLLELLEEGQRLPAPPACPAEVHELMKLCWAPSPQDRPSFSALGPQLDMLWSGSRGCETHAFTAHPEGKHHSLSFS
The experiment in a line: experiment of inhibiting kinase activity (Caliper mobility shift assay), JAK3. As to conditions: read-out: inhibition rate JAK3; for inhibition at 0.1 µM: at 100 nM; for inhibition at 0.01 µM: at 10 nM. The method, then:
(§1) The inhibition rates of tested compounds on JAK1, JAK2, JAK3, TYK2, CDK7, CDK9, EGFR (T790M) and LRRK2 kinases were measured. The test concentrations of the compounds were 10 nM and 100 nM, and the detection was performed by replicate wells. Alternatively, compounds were 3-fold serial diluted from 10 µM for 10 concentrations in replicate wells.
(§2) The inhibitory effects of the compounds on JAK1, JAK2, JAK3, CDK7 and CDK9 kinases were detected by the method of Caliper mobility shift assay. 250 nL of the compound at 100-fold final concentration was transferred to a destination plate 384-well-plate by using a liquid handler Echo 550. A kinase solution at 2.5-fold final concentration was prepared with 1×kinase buffer. 10 µL of the kinase solution with 2.5-fold final concentration was added to compound wells and positive control wells; and 10 µL of 1×kinase buffer was added to negative control wells. The mixture was centrifuged at 1000 rpm for 30 seconds and then incubated at room temperature for 10 minutes. A mixed solution of ATP and kinase substrate at 5/3-fold final concentration was prepared with 1×kinase buffer, and 15 µL of the mixed solution of ATP and substrate at 5/3-fold final concentration was added to start the reaction. The 384-well plate was centrifuged at 1000 rpm for 30 seconds, shaked and mixed evenly, then incubated at room temperature for a corresponding time. 30 µL of stop solution was added to stop the kinase reaction, the mixture was centrifuged at 1000 rpm for 30 seconds, and shaked and mixed evenly. The conversion rate was read by Caliper EZ Reader. The conversion inhibition rate%=(average positive control conversion rate%-sample conversion rate%)/(average positive control conversion rate%-average negative control conversion rate%). Where negative control wells represent the conversion readings of the background well of kinase buffer; and positive control wells represent the conversion readings of wells without compound inhibition. With the log value of concentration as the x axis and the percentage inhibition rate as the y axis, the dose-response curve was fitted by the log (inhibitor) vs. response-variable slope of the analyzing softwar GraphPad Prism 5, and the IC50 values of each compound on enzyme activity were obtained. Calculation formula is as follows: y=Bottom+(Top-Bottom)/(1+10^((LogIC50-x)×hillslope)), where x is logarithm of inhibitor concentration; and Y is % inhibition rate.

The target in experiment [2] is LRRK2 (Homo sapiens, UniProt Q5S007). The experiment in a line: experiment of inhibiting kinase activity, LRRK2. Particulars: for inhibition at 0.01 µM: at 10 nM; for inhibition at 0.01 µM / inhibition at 0.1 µM: read-out: inhibition rate LRRK2; for inhibition at 0.1 µM: at 100 nM; for IC50: kinase activity assay, Table 3. The method, then:
as §1

Experiment [3] has as its target CDK7 (Homo sapiens, UniProt P50613). The experiment in a line: experiment of inhibiting kinase activity (Caliper mobility shift assay), CDK7. Particulars: for inhibition at 0.01 µM: at 10 nM; for inhibition at 0.01 µM / inhibition at 0.1 µM: read-out: inhibition rate CDK7; for inhibition at 0.1 µM: at 100 nM. The method, then: as §1, §2
Experiment [4] concerns the target JAK2 (Homo sapiens, UniProt O60674). The experiment in a line: experiment of inhibiting kinase activity (Caliper mobility shift assay), JAK2. Particulars: read-out: inhibition rate JAK2; for inhibition at 0.1 µM: at 100 nM; for inhibition at 0.01 µM: at 10 nM. The protocol: as §1, §2
Experiment [5] deals with TYK2 (Homo sapiens, UniProt P29597). The experiment in a line: experiment of inhibiting kinase activity, TYK2. As to conditions: at 10 nM; read-out: inhibition rate TYK2. The method, then:
as §1

The target in experiment [6] is JAK1 (Homo sapiens, UniProt P23458). In words: experiment of inhibiting kinase activity (Caliper mobility shift assay), JAK1. As to conditions: at 10 nM; read-out: inhibition rate JAK1. The method, then: as §1, §2

Sequence of JAK2 (O60674 whole entry): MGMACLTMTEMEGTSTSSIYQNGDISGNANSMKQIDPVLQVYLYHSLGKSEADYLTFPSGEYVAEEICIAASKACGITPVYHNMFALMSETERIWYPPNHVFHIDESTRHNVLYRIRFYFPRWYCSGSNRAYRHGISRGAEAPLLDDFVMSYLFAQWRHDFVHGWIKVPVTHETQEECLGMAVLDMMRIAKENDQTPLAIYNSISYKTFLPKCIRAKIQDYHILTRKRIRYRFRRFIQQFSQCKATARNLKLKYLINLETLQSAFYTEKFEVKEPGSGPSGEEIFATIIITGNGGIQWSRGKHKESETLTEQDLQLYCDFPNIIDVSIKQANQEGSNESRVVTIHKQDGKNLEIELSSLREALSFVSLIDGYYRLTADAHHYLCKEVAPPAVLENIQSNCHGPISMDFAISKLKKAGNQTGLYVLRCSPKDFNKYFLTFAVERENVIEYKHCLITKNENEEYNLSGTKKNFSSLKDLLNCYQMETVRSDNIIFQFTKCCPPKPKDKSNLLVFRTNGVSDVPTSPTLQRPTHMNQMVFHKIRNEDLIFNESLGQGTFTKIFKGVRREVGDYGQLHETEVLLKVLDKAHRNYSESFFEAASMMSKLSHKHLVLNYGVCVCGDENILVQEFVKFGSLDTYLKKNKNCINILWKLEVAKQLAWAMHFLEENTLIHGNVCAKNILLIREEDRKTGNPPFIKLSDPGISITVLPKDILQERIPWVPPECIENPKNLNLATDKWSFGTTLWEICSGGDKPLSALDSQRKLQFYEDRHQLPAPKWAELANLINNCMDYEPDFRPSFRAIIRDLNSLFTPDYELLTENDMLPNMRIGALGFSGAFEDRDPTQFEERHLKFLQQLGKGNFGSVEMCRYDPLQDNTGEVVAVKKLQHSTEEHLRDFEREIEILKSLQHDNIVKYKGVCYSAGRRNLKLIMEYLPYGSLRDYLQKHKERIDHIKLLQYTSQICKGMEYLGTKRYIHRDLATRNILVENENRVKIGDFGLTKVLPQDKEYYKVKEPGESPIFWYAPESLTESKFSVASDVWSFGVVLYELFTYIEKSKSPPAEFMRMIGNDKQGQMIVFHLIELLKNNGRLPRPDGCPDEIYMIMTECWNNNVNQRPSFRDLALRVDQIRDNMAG
Sequence of LRRK2 (Q5S007 whole entry): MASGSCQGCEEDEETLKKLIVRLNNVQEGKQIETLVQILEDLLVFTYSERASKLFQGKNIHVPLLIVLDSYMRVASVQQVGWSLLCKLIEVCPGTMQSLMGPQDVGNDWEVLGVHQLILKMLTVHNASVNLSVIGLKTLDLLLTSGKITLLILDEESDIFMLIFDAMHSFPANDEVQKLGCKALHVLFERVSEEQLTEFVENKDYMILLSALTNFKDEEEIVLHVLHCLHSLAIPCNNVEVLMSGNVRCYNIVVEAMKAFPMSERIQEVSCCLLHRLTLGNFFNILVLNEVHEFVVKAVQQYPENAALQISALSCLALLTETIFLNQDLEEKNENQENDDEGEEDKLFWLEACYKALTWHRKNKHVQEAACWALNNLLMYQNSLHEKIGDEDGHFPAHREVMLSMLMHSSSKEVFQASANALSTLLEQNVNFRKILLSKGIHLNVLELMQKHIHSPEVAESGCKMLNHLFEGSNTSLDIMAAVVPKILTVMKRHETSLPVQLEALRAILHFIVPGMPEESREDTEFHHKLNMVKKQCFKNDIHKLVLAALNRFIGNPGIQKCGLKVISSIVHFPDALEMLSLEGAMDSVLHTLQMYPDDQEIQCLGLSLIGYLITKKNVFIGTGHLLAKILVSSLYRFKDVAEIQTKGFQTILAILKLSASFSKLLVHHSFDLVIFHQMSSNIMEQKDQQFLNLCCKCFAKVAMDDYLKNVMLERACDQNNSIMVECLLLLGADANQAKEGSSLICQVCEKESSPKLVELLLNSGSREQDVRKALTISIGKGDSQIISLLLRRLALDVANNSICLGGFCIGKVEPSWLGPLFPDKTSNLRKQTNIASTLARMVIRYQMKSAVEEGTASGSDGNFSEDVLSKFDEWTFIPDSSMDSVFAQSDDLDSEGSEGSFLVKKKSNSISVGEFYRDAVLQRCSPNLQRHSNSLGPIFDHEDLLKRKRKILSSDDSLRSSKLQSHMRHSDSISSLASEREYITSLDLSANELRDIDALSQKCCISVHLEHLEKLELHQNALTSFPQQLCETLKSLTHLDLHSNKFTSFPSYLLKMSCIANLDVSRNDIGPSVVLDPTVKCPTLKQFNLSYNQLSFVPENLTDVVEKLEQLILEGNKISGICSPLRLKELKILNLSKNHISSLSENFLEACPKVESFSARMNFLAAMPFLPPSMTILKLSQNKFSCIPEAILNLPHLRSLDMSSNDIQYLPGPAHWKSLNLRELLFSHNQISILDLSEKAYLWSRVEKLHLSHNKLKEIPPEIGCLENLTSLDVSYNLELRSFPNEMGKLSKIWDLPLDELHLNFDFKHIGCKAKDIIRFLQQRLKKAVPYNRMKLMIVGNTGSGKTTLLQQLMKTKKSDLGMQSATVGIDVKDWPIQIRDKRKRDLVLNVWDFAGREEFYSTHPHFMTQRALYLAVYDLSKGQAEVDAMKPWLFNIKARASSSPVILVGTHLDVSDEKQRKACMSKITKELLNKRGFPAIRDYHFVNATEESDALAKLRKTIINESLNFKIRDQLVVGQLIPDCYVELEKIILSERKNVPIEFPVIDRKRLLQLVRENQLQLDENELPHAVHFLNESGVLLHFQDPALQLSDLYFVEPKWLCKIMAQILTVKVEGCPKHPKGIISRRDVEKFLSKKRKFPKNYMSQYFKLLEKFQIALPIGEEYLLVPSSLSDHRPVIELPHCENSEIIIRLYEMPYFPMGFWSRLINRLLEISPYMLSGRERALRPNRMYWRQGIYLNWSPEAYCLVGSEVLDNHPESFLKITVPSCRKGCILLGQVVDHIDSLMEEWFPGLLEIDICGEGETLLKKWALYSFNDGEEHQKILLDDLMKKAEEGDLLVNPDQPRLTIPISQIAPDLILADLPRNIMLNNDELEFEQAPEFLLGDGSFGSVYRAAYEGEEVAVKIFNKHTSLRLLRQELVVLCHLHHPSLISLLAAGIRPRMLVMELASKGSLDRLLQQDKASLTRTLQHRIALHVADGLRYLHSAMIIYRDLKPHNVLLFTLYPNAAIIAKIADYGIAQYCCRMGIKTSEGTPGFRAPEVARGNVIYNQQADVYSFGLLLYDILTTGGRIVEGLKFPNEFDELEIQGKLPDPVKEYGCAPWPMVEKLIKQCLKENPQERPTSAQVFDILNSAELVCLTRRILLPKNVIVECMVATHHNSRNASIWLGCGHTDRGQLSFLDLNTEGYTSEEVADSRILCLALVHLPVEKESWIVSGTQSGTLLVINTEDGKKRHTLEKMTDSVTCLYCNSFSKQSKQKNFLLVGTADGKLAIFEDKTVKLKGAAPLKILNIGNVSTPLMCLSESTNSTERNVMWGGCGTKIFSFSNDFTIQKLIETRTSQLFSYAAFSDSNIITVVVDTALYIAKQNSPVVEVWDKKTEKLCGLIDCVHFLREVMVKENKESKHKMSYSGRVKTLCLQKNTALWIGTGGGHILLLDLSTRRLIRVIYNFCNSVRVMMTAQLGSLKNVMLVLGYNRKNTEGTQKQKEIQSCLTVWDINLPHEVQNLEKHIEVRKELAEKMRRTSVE
Sequence of CDK7 (P50613 whole entry, species assumed): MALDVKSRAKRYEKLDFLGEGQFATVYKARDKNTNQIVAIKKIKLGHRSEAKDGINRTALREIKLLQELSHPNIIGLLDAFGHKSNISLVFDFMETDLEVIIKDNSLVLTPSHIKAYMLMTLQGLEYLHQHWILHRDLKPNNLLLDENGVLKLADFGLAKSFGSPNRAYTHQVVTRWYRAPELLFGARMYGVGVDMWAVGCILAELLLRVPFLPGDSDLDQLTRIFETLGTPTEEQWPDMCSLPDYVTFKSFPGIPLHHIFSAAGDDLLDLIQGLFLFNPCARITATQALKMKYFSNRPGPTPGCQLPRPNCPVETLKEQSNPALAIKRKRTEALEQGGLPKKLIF
Sequence of CDK7 (P51946 whole entry partner, species assumed): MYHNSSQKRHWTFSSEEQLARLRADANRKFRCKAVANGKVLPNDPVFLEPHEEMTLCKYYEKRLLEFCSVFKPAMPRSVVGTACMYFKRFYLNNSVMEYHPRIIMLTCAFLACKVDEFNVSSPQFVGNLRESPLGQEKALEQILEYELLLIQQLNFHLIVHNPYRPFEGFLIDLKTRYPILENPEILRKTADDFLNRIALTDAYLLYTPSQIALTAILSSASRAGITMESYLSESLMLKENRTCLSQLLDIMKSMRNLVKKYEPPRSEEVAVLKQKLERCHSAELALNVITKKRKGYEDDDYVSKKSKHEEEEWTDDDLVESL
Sequence of CDK7 (P51948 whole entry partner, species assumed): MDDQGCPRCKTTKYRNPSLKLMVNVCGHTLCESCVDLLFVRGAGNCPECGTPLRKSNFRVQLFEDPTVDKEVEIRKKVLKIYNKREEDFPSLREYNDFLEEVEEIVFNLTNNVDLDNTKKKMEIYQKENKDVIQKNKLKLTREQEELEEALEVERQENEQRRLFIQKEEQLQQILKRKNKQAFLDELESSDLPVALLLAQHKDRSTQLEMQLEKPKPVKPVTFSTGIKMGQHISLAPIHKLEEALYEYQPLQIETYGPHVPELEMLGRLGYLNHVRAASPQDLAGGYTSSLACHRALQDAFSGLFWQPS

As for `CC(C)S(=O)(=O)c1ccccc1Nc1nc(Nc2ccc3c(c2)OCCN(C)CCOCCO3)nc2[nH]ncc12` [Example 12, N^4-(2-(isopropylsulfonyl)phenyl)-N^6-(7-methyl-2,3,6,7,8,9-hexahydro-5H-benzo[b][1,4, 7]trioxa[10]azacyclododecan-12-yl)-1H-pyrazolo[3,4-d]pyrimidin-4,6-diamine], the inhibition at 0.1 µM in experiment [1] was 25 to 39%; in experiment [2], greater than 80%; in experiment [3], greater than 80%; in experiment [4] it was 40 to 79%. Also, the inhibition at 0.01 µM in experiment [2] lay in the range of 25 to 39%; in experiment [3], 40 to 79%. For the same compound, the IC50 in experiment [2] is less than 0.05 µM; in experiment [3] (kinase activity assay, Table 3), less than 0.05 µM.
Regarding `CC(C)S(=O)(=O)c1ccccc1Nc1nc(Nc2ccc3c(c2)OCCN(C)CCOCCO3)nc2[nH]ccc12` [Example 53, N^4-(2-(isopropylsulfonyl)phenyl)-N^2-(7-methyl-2,3,6,7,8,9-hexahydro-5H-benzo[b][1,4,7]trioxa[10]azacyclododecan-12-yl)-7H-pyrrolo[2,3-d]pyrimidin-2,4-diamine], the inhibition at 0.01 µM in experiment [1] is 40 to 79%; in experiment [2] it was greater than 80%; in experiment [3] it was greater than 80%; in experiment [4] it was 40 to 79%.
As for `CN1CCOc2ccc(Nc3nc(-c4cn(C)c5ccccc45)c4cc[nH]c4n3)cc2OCC1` [Example 39, 4-methyl-N-(4-(1-methyl-1H-indol-3-yl)-7H-pyrrolo[2,3-d]pyrimidin-2-yl)-3,4,5,6-tetrahydro-2H-benzo[b][1,4,7]dioxazolin-9-amine], the inhibition at 0.1 µM in experiment [2] was in the range of 40 to 79%; in experiment [3], 25 to 39%; in experiment [4], 40 to 79%. This compound had an IC50 in experiment [2] of less than 0.05 µM.
For `CN1CCOCCOc2cc(Nc3nc(-c4cn(C)c5ccccc45)c4cn[nH]c4n3)ccc2OCC1` [Example 24, 7-methyl-N-(4-(1-methyl-1H-indol-3-yl)-1H-pyrazolo[3,4-d]pyrimidin-6-yl)-2,3,6,7,8,9-hexahydro-5H-benzo[b][1,4,7]trioxa[10]azacyclododecan-13-amine], the inhibition at 0.1 µM in experiment [2] lay within 25 to 39%; in experiment [3] it was 40 to 79%; in experiment [4] it was 40 to 79%.
Consider `CN1CCOCCOc2cc(Nc3nc(Nc4ccccc4P(C)(C)=O)c4cn[nH]c4n3)ccc2OCC1` [Example 33, dimethyl(2-((6-((7-methyl-2,3,6,7,8,9-hexahydro-5H-benzo[b][1,4,7]trioxa[10]azacyclododecan-13-yl)amino)-1H-pyrazolo[3,4-d]pyrimidin-4-yl)amino)phenyl)phosphine oxide], for which the inhibition at 0.01 µM was 25 to 39% in experiment [1] and greater than 80% in experiment [2]. Further, the inhibition at 0.1 µM was greater than 80% in experiment [1], greater than 80% in experiment [2], 40 to 79% in experiment [3] and 40 to 79% in experiment [4]. The compound also gave a half-maximal inhibitory concentration (IC50) in experiment [2] of less than 0.05 µM.
`CN1CCOc2ccc(Nc3nc(-c4cn(C)c5ccccc45)c4cn[nH]c4n3)cc2OCC1` [Example 5, 4-methyl-N-(4-(1-methyl-1H-indol-3-yl)-1H-pyrazolo[3,4-d]pyrimidin-6-yl)-3,4,5,6-tetrahydro-2H-benzo[b][1,4,7]dioxazolin-9-amine]: the inhibition at 0.1 µM in experiment [3] lay in the range of 25 to 39%.
As for `CC(=O)N1CCOCCOc2cc(Nc3nc(Nc4ccccc4S(=O)(=O)C(C)C)c4cc[nH]c4n3)ccc2OCC1` [Example 98, 1-(13-((4-((2-(isopropylsulfonyl)phenyl)amino)-7H-pyrrolo[2,3-d]pyrimidin-2-yl)amino)-2,3,5,6,8,9-hexahydro-7H-benzo[b][1,4,7]trioxa[10]azacyclododecan-7-yl)ethan-1-one], the inhibition at 0.01 µM is 40 to 79% in experiment [1], greater than 80% in experiment [2], 25 to 39% in experiment [3] and 40 to 79% in experiment [4]. This compound had an IC50 in experiment [2] of less than 0.05 µM.
`CC(C)S(=O)(=O)c1ccccc1Nc1nc(Nc2ccc3c(c2)OCCN(C)CCO3)nc2[nH]ncc12` [Example 36, N^4-(2-(isopropylsulfonyl)phenyl)-N^6-(4-methyl-3,4,5,6-tetrahydro-2H-benzo[b] [1,4,7]dioxazolin-9-yl)-1H-pyrazolo[3,4-d]pyrimidin-4,6-diamine]: the inhibition at 0.1 µM in experiment [1] is 25 to 39%; in experiment [2], greater than 80%; in experiment [3], 40 to 79%; in experiment [4] it was 40 to 79%. The compound further registered an IC50 in experiment [2] of less than 0.05 µM.
As to `C=CC(=O)Nc1cc(C)ccc1Nc1nc(Nc2ccc3c(c2)OCCN(C)CCO3)ncc1C(F)(F)F` [Example 112, N-(5-methyl-2-((2-((4-methyl-3,4,5,6-tetrahydro-2H-benzo[b][1,4,7]dioxazolin-9-yl)amino)-5-(trifluoromethyl)pyrimidin-4-yl)amino)phenyl)acrylamide], the inhibition at 0.01 µM in experiment [3] lay in the range of 40 to 79%.
As to `CN1CCOCCOc2ccc(Nc3ncc(F)c(-c4cnn(C(CC#N)C5CCCC5)c4)n3)cc2OCC1` (centres unmarked) [Example 42, 3-cyclopentyl-3-(4-(5-fluoro-2-((7-methyl-2,3,6,7,8,9-hexahydro-5H-benzo[b][1,4,7]trioxa[10]azacyclododecan-12-yl)amino)pyrimidin-4-yl)-1H-pyrazol-1-yl)propanenitrile], the inhibition at 0.01 µM is 25 to 39% in experiment [3], greater than 80% in experiment [5] and greater than 80% in experiment [4].
For the compound `CN1CCOc2ccc(Nc3nc(-c4cnn([C@H](CC#N)C5CCCC5)c4)c4cc[nH]c4n3)cc2OCC1` [Example 76, (R)-3-cyclopentyl-3-(4-(2-((4-methyl-3,4,5,6-tetrahydro-2H-benzo[b][1,4,7]dioxazolin-9-yl)amino)-7H-pyrrolo[2,3-d]pyrimidin-4-yl)-1H-pyrazol-1-yl)propanenitrile], the inhibition at 0.01 µM in experiment [1] is 40 to 79%; in experiment [6] it was 40 to 79%; in experiment [2], 40 to 79%; in experiment [5] it was greater than 80%; in experiment [4], greater than 80%.
With `CN1CCOCCOc2cc(Nc3nc(Nc4cccc(S(N)(=O)=O)c4)c4cc[nH]c4n3)ccc2OCC1` [Example 67, 3-((2-((7-methyl-2,3,6,7,8,9-hexahydro-5H-benzo[b][1,4,7]trioxa[10]azacyclododecan-13-yl)amino)-7H-pyrrolo[2,3-d]pyrimidin-4-yl)amino)benzenesulfonamide], the inhibition at 0.1 µM was 25 to 39% in experiment [1], greater than 80% in experiment [2], 40 to 79% in experiment [3] and 40 to 79% in experiment [4].
